From the supplement of paper PMC10307832

How the values were obtained:
Test in all cases: relative viability (nuclei count vs DMSO), 5 days (fraction); higher = more cells survive
[1] = compound: CC(C)C[C@@H](C(=O)N[C@H](C(=O)OC1CCCC1)c1ccccc1)[C@H](O)C(=O)NO [Tosedostat] + CS(=O)(=O)N1CCN(Cc2cc3nc(-c4cccc5[nH]ncc45)nc(N4CCOCC4)c3s2)CC1 [Pictilisib] (partner 1 µM)
Summary of the method: (§1)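 For relative viability, nuclei counts in treated wells were divided by those in vehicle wells. Lung cancer cell lines had been pin-tool dosed in 1536-well plates the day after seeding and cultured for 5 days, then fixed and stained in one step (final 0.05% Triton X-100, 1% formaldehyde, 1 ug/ml Hoechst) and imaged at 4×. Doses were one drug alone or a fixed anchor-drug dose plus five library-drug doses (not always all listed) in √10 steps, and values are duplicate-plate medians.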

[2] = compound: CC1=NN=C(O1)C2=NN=C(C=C2)N3CCC(CC3)OC4=C(C=CC(=C4)F)Cl + Cc1cc(Nc2cc(N3CCN(C)CC3)nc(Sc3ccc(NC(=O)C4CC4)cc3)n2)n[nH]1 [Tozasertib] (partner 0.1 µM)
Summary of the method: as §1

[3] = compound: CC1=NN=C(O1)C2=NN=C(C=C2)N3CCC(CC3)OC4=C(C=CC(=C4)F)Cl + O=C(c1cc(Cc2n[nH]c(=O)c3ccccc23)ccc1F)N1CCN(C(=O)C2CC2)CC1 [Olaparib] (partner 8 µM)
Summary of the method: as §1

[4] = compound: CC(C)C[C@@H](C(=O)N[C@H](C(=O)OC1CCCC1)c1ccccc1)[C@H](O)C(=O)NO [Tosedostat] + COc1cc2c(Oc3ccc(NC(=O)C4(C(=O)Nc5ccc(F)cc5)CC4)cc3F)ccnc2cc1OCCCN1CCOCC1 [Foretinib] (partner 0.25 µM)
Summary of the method: as §1

Cell Line | relative viability ([1]; first compound 0.02 µM) | relative viability ([1]; first compound 0.06325 µM) | relative viability ([1]; first compound 0.2 µM) | relative viability ([1]; first compound 0.6325 µM) | relative viability ([1]; first compound 2 µM) | relative viability ([2]; first compound 0.253 µM) | relative viability ([2]; first compound 0.8 µM) | relative viability ([2]; first compound 2.53 µM) | relative viability ([2]; first compound 8 µM) | relative viability ([3]; first compound 0.253 µM) | relative viability ([3]; first compound 0.8 µM) | relative viability ([3]; first compound 2.53 µM) | relative viability ([3]; first compound 8 µM) | relative viability ([4]; first compound 0.02 µM) | relative viability ([4]; first compound 0.06325 µM) | relative viability ([4]; first compound 0.2 µM) | relative viability ([4]; first compound 0.6325 µM) | relative viability ([4]; first compound 2 µM)
LU99A | 0.343 | 0.317 | 0.295 | 0.258 | 0.221 | 0.279 | 0.271 | 0.268 | 0.287 | 0.214 | 0.294 | 0.277 | 0.299 | 0.894 | 0.729 | 0.758 | 0.708 | 0.674
ChaGo-K-1 | 1.1 | 0.813 | 0.754 | 0.812 | 0.638 | 0.258 | 0.226 | 0.226 | 0.214 | 0.298 | 0.255 | 0.354 | 0.28 | 0.911 | 0.934 | 0.976 | 0.833 | 0.709
NCI-H3122 | 0.663 | 0.659 | 0.615 | 0.692 | 0.704 | 0.151 | 0.137 | 0.144 | 0.155 | 0.283 | 0.273 | 0.336 | 0.293 | 1.01 | 0.901 | 1.01 | 0.967 | 1.07
NCI-H1651 | 0.729 | 0.64 | 0.503 | 0.55 | 0.451 | 0.58 | 0.66 | 0.567 | 0.571 | 0.165 | 0.162 | 0.17 | 0.162 | 0.864 | 0.736 | 0.764 | 0.906 | 0.688
NCI-H661 | 0.399 | 0.444 | 0.366 | 0.432 | 0.301 | 0.305 | 0.319 | 0.308 | 0.265 | 0.619 | 0.542 | 0.583 | 0.586 | 1.07 | 0.99 | 0.98 | 0.979 | 0.937
NCI-H1755 | 0.461 | 0.489 | 0.38 | 0.376 | 0.276 | 0.425 | 0.45 | 0.467 | 0.405 | 0.65 | 0.616 | 0.657 | 0.562 | 1.01 | 0.944 | 1 | 0.992 | 0.931
NCI-H1734 | 0.471 | 0.468 | 0.444 | 0.459 | 0.433 | 0.262 | 0.287 | 0.216 | 0.247 | 0.544 | 0.509 | 0.57 | 0.472 | 0.93 | 0.859 | 0.826 | 0.818 | 0.652
NCI-H1993 | 0.818 | 0.863 | 1.01 | 0.84 | 0.688 | 0.558 | 0.603 | 0.635 | 0.571 | 0.894 | 0.758 | 0.855 | 0.856 | 0.72 | 0.565 | 0.793 | 0.675 | 0.534
RERF-LC-KJ | 0.463 | 0.647 | 0.45 | 0.471 | 0.433 | 0.341 | 0.351 | 0.367 | 0.322 | 0.377 | 0.536 | 0.553 | 0.529 | 0.851 | 0.912 | 0.77 | 0.884 | 0.8
HARA | 0.375 | 0.432 | 0.314 | 0.376 | 0.348 | 0.0993 | 0.0831 | 0.0894 | 0.0804 | 0.331 | 0.244 | 0.317 | 0.256 | 0.941 | 0.914 | 0.852 | 0.813 | 0.787
NCI-H838 | 0.522 | 0.5 | 0.456 | 0.652 | 0.638 | 0.244 | 0.248 | 0.247 | 0.245 | 0.536 | 0.595 | 0.637 | 0.591 | 1.1 | 1.02 | 1.04 | 1.08 | 1.13
NCI-H1666 | 0.603 | 0.404 | 0.5 | 0.367 | 0.291 | 0.43 | 0.496 | 0.458 | 0.388 | 0.692 | 0.728 | 0.655 | 0.664 | 1.08 | 1.01 | 0.945 | 0.899 | 1.05
NCI-H322M | 0.532 | 0.408 | 0.45 | 0.486 | 0.391 | 0.488 | 0.482 | 0.422 | 0.436 | 0.746 | 0.724 | 0.817 | 0.732 | 0.995 | 0.899 | 0.93 | 0.904 | 0.857
LCLC-97TM1 | 0.177 | – | – | 0.147 | 0.186 | 0.182 | 0.137 | 0.172 | 0.207 | 0.369 | – | 0.267 | 0.258 | 0.878 | 0.926 | 0.833 | 0.771 | 0.773
EPLC-272H | 0.416 | 0.337 | 0.284 | 0.3 | 0.241 | 0.36 | 0.228 | 0.184 | 0.158 | 0.744 | 0.742 | 0.758 | 0.657 | 0.658 | 0.512 | 0.58 | 0.355 | 0.185
NCI-H2023 | 0.247 | 0.233 | 0.251 | 0.139 | 0.198 | 0.301 | 0.216 | 0.205 | 0.147 | 0.311 | 0.274 | 0.307 | 0.235 | 0.782 | 0.779 | 0.764 | – | 0.808
NCI-H460 | 0.31 | 0.407 | 0.353 | 0.365 | 0.365 | 0.0757 | 0.107 | 0.144 | 0.129 | 0.15 | 0.155 | 0.199 | 0.198 | 1.05 | 1 | 0.968 | 0.977 | 1
NCI-H647 | 0.563 | 0.444 | 0.553 | 0.429 | 0.493 | 0.166 | 0.105 | 0.126 | 0.0876 | 0.232 | 0.157 | 0.173 | 0.0657 | 1.36 | 1.14 | 1.18 | 1.04 | 1.17
